Values after ≈ are worked out from the molar mass of the structure shown. Read-outs that look alike come from different tables or passages of the source.
How the values were obtained:
[1] = tested on: Cn MRL862; assay type: cell-based, Cryptococcus neoformans; details: RPMI1640, 37 °C, 48 h
Experimental: All microdilution assays with fungi were carried out in accordance with CLSI protocols from M27 for yeasts and M38 for filamentous fungi, respectively, unless otherwise specified.[64],[65] Briefly, 96-well plates were charged with RPMI1640 media, with operating volume in the first column, 200 μL, and half operating volume, 100 μL, in the remaining wells. Drug stock solution in DMSO was aliquoted into the first well in each row. Half of the volume in the dosed well was serially diluted 2-fold until column 11. Column 11 was used as the negative growth control, and column 12 was used as the positive growth control. ON yeast cultures in YPD were washed twice in DD-H2O, resuspended in PBS, and adjusted to 5000 cfu/mL in RPMI. The 96-well plate was inoculated with 100 μL aliquots of cell suspension per well. Plates were incubated at 37 °C for 2 days.
To assess drug synergy, the initial media charged to the plate contained the peptide at twice the final operating concentration; the remaining processing steps were identical to the MIC experiment. Upon addition of 100 μL of inoculant, the final operating concentration was achieved. Control MIC plates were prepared alongside drug synergy plates to account for the day-to-day variability in any individual MIC. FIC index is computed using eq 1. All MIC assays and drug synergy assays were completed with two technical replicates per 96-well plate and a minimum of two biological replicates per drug combination. If a difference in MIC between the two technical replicates on the plate were observed, only the higher concentration was reported as the MIC to reduce the possibility of type 1 error (false positive) [drawing 1] 1

[2] = tested on: C. neoformans H99; assay type: cell-based, Cryptococcus neoformans; details: RPMI1640, 37 °C; for MIC of antifungal in combination with KKOO / MIC of antifungal in combination with KKOO-NH2: 48 h
[3] = tested on: C. auris B11245; assay: microbe, parasite or virus in culture; assay type: cell-based, Candida auris; details: Candidozyma auris, B11245; compound alone; RPMI1640, 37 °C, 48 h; * = paradoxical growth observed (CAS); read-out: MIC
Outline: (§1)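 Broth microdilution per CLSI M27 in RPMI1640, compounds serially diluted 2-fold from DMSO stock. Overnight YPD cultures washed, resuspended and adjusted to 5000 cfu/mL in RPMI as inoculum. Plates incubated 2 days at 37 °C.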

[4] = tested on: Cn cdc50Δ; assay: microbe, parasite or virus in culture; assay type: cell-based, Cryptococcus neoformans; details: 48 h, 37 °C, 48 h
Outline: (§2)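 MICs were determined by CLSI M27 broth microdilution in RPMI1640, using 2-fold serial dilutions and a 5000 cfu/mL yeast inoculum, with incubation for 2 days at 37 °C. Separate MIC tests were run in YPD enriched with CaCl2 or MgCl2.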

[5] = tested on: Cn H99; assay: microbe, parasite or virus in culture; assay type: cell-based, Cryptococcus neoformans; details: Cryptococcus neoformans, H99, 48 h, 37 °C, 48 h, read-out: MIC
Outline: as §2

[6] = tested on: C. glabrata FKS2-S663P; assay: microbe, parasite or virus in culture; assay type: cell-based, Candida glabrata; details: Nakaseomyces glabratus, FKS2S663P, 48 h
Outline: as §1

[7] = tested on: C. glabrata 2001; assay: microbe, parasite or virus in culture; assay type: cell-based, Candida glabrata; details: Nakaseomyces glabratus, 2001; compound alone; RPMI1640, 37 °C, 48 h; read-out: MIC
Outline: as §1

[8] = tested on: C. glabrata FKS1-S629P; assay: microbe, parasite or virus in culture; assay type: cell-based, Candida glabrata; details: Nakaseomyces glabratus, FKS1S629P, 48 h
Outline: as §1

CC[C@H](C)C[C@H](C)CCCCCCCCC(=O)N[C@H]1C[C@@H](O)[C@@H](NCCN)NC(=O)[C@@H]2[C@@H](O)CCN2C(=O)[C@H]([C@H](O)CCN)NC(=O)[C@H]([C@H](O)[C@@H](O)c2ccc(O)cc2)NC(=O)[C@@H]2C[C@@H](O)CN2C(=O)[C@H]([C@@H](C)O)NC1=O [CAS, caspofungin]
MIC of antifungal in combination with KKOO ([1]; +0 μg/mL KKOO (control)): 16 µg/mL | MIC of antifungal in combination with KKOO-NH2 ([1]; +0 μg/mL KKOO-NH2 (control)): 16 µg/mL | MIC of antifungal in combination with KKOO-NH2 ([1]; +1 μg/mL KKOO-NH2): 16 µg/mL | MIC of antifungal in combination with KKOO ([1]; +1 μg/mL KKOO): 16 µg/mL | MIC of antifungal in combination with KKOO-NH2 ([1]; +2 μg/mL KKOO-NH2): 8 µg/mL | MIC of antifungal in combination with KKOO ([1]; +2 μg/mL KKOO): 16 µg/mL | MIC of antifungal in combination with KKOO-NH2 ([1]; +4 μg/mL KKOO-NH2): 4 µg/mL | MIC of antifungal in combination with KKOO ([1]; +4 μg/mL KKOO): 8 µg/mL | MIC of antifungal in combination with (FITC)KKOO ([2]; +0 μg/mL (FITC)KKOO): 16 µg/mL | MIC of antifungal in combination with KKOO ([2]; +0 μg/mL KKOO (control)): 16 µg/mL | MIC of antifungal in combination with KKOO-NH2 ([2]; +0 μg/mL KKOO-NH2 (control)): 16 µg/mL | MIC of antifungal in combination with KKOO-NH2 ([2]; +1 μg/mL KKOO-NH2): 16 µg/mL | MIC of antifungal in combination with KKOO ([2]; +1 μg/mL KKOO): 16 µg/mL | MIC of antifungal in combination with KKOO-NH2 ([2]; +2 μg/mL KKOO-NH2): 16 µg/mL | MIC of antifungal in combination with KKOO ([2]; +2 μg/mL KKOO): 16 µg/mL | MIC of antifungal in combination with (FITC)KKOO ([2]; +4 μg/mL (FITC)KKOO): 16 µg/mL | MIC of antifungal in combination with KKOO-NH2 ([2]; +4 μg/mL KKOO-NH2): 4 µg/mL | MIC of antifungal in combination with KKOO ([2]; +4 μg/mL KKOO): 16 µg/mL | MIC of antifungal in combination with (FITC)KKOO ([2]; +8 μg/mL (FITC)KKOO): 16 µg/mL | MIC of antifungal in combination with KKOO ([2]; +8 μg/mL KKOO): 8 µg/mL | MIC [3]: 1 µg/mL (≈ 0.915 µM) | MIC ([4]; Cryptococcus neoformans, YPD + 0 mM Ca2+): 4 µg/mL | MIC ([4]; Cryptococcus neoformans, YPD + 2.5 mM Ca2+): 8 µg/mL | MIC ([4]; Cryptococcus neoformans, YPD + 5 mM Ca2+): 16 µg/mL | MIC ([4]; Cryptococcus neoformans, YPD + 10 mM Ca2+): 32 µg/mL | MIC ([4]; Cryptococcus neoformans, YPD + 20 mM Ca2+): 8 µg/mL | MIC ([4]; YPD + 0 mM Mg2+, unit inferred): 4 µg/mL | MIC ([4]; YPD + 2.5 mM Mg2+, unit inferred): 8 µg/mL | MIC ([4]; YPD + 5 mM Mg2+, unit inferred): 8 µg/mL | MIC ([4]; YPD + 10 mM Mg2+, unit inferred): 8 µg/mL | MIC ([4]; YPD + 20 mM Mg2+, unit inferred): 8 µg/mL | MIC ([5]; YPD + 0 mM Ca2+): 8 µg/mL | MIC ([5]; YPD + 0 mM Mg2+): 8 µg/mL | MIC ([5]; YPD + 2.5 mM Ca2+): 16 µg/mL | MIC ([5]; YPD + 2.5 mM Mg2+): 16 µg/mL | MIC ([5]; YPD + 5 mM Ca2+): 32 µg/mL | MIC ([5]; YPD + 5 mM Mg2+): 16 µg/mL | MIC ([5]; YPD + 10 mM Ca2+): 64 µg/mL | MIC ([5]; YPD + 10 mM Mg2+): 32 µg/mL | MIC ([5]; YPD + 20 mM Mg2+): 64 µg/mL | MIC [6]: 4 µg/mL (≈ 3.66 µM) | MIC [7]: 0.5 µg/mL (≈ 0.457 µM) | MIC [8]: 2 µg/mL (≈ 1.83 µM)
